{
  "source": "paper PMC8706516",
  "about": "“Spray-Dried Powder Formulation of Capreomycin Designed for Inhaled Tuberculosis Therapy” (Pharmaceutics, 2021)",
  "type": "in vivo, BALB/c mice",
  "settings": "20 mg/kg",
  "experimental": "BALB/c mice of either gender aged 7 to 9 weeks weighing between 18 to 30 g were employed in this study. The mice were obtained from the Centre for Comparative Medicine Research, The University of Hong Kong. They were housed in a 12-h light/12-h dark cycle with food and water supplied ad libitum. All the animal experiments were performed with the approval from the Committee on the Use of Live Animals in Teaching and Research, The University of Hong Kong (CULATR 4921-19, approved on 1 February 2019).\nThe mice were randomly divided into two treatment groups (n = 45 per group, five mice per time point, nine time points in total). The intravenous (IV) group received capreomycin (sulfate) solution prepared in normal saline (4 mg/mL) via tail vein injection at a dose of 20 mg/kg. Intratracheal (IT) group received the C25_T90 formulation as powder aerosol intratracheally as previously described. In brief, the powder was loaded in a 200 µL gel loading pipette tip, which was connected with a three-way stopcock and 1 mL syringe. The pipette tip was inserted into the trachea of mice under anesthesia. The powder was dispersed into the lungs of mice by 0.6 mL of air in the syringe. After each powder insufflation, the pipette tip was removed and rinsed with 1 mL ultra-pure water. The rinsing solution was assayed by HPLC to calculate the residual mass of capreomycin in the tip. The delivered mass of capreomycin was calculated as drug content in the loaded mass of powder minus the residual mass of capreomycin in the tip. The insufflation efficiency (%) was the ratio of delivered mass of capreomycin to the loaded mass of capreomycin. According to a preliminary study, the insufflation efficiency of C25_T90 formulation was around 80% (unpublished data). […] The delivered dose within 17.5 to 22.5 mg/kg was considered successful administration, and mice that received dose outside this range were excluded. At 5 min, 15 min, 30 min, 1 h, 2 h, 4 h, 6 h, 8 h, and 24 h post-administration, the mice were euthanized with overdose pentobarbital (200 mg/kg). The whole blood was collected by cardiac puncture, followed by centrifugation at 13,000 rpm for 10 min to obtain the plasma. The lungs were collected and frozen in liquid nitrogen immediately. The plasma and lung tissues were stored at −80 °C until further analysis.\nThe extraction of capreomycin from plasma and tissue homogenates was performed according to a previous study with minor modification. Tissue homogenates were obtained by homogenizing the tissue with sterile water. A volume of 1 µL perchloric acid was added to a microcentrifuge tube containing 100 µL of plasma or tissue homogenates to induce protein precipitation. The mixtures were vortexed for 10 min and centrifuged at 16,000× g for 10 min. The supernatant was collected and neutralized with 110 µL basic mix of 1:10 KOH/K2HPO4 solution. The obtained mixtures were then vortexed, followed by centrifugation at 16,000× g for 15 min. The supernatant was transferred to glass vials for HPLC analysis. A standard curve was obtained by spiking known concentrations of capreomycin (0.6 to 40.0 µg/mL) into blank plasma or blank lung tissue homogenate followed by treatment as mentioned above. HPLC was performed using a C18 column (5 μm, 4.6 × 250 mm, Agilent, Santa Clara, CA, USA) with a guard cartridge. In this HPLC method, HFBA replaced TFA to improve peak resolution of the samples. The mobile phase consisted of 0.1% HFBA in ultrapure water (solvent A) and 0.1% HFBA in HPLC grade acetonitrile (solvent B), pumped at 1 mL/min under the following gradient: 0 to 2 min, 80% A; 2 to 22 min, 80–20% A; 22 to 25 min, 20% A (v/v). A volume of 50 µL sample was injected and capreomycin was detected by UV absorption at 268 nm. Capreomycin eluted at approximately 9.7 min with this method. […]",
  "key": {"[1]": {"settings": "lung tissue, intravenous solution"}, "[2]": {"settings": "lung tissue, intravenous, solution in normal saline, HPLC-UV, noncompartmental, mean ± SD, n = 5"}, "[3]": {"settings": "lung tissue, intravenous, solution in normal saline, HPLC-UV, noncompartmental, mean ± SD, only three sets of data"}, "[4]": {"settings": "plasma, intravenous, solution in normal saline, HPLC-UV, noncompartmental, mean ± SD, n = 5"}},
  "note": "Where two headings read alike, the source gives them in different places. Marks after values point to notes of the source that are not given here.",
  "data": [
    {"substance": "Capreomycin", "values": [
      {"measurement": "Time after administration at which capreomycin was no longer detectable in the lung", "setting": "[1]", "value": 1, "unit": "h"},
      {"measurement": "Time to Cmax", "setting": "[1]", "value": "≤ 20", "unit": "min"},
      {"measurement": "AUC0–t", "setting": "[2]", "value": "6710 ± 510", "unit": "ng·h/mL"},
      {"measurement": "Cmax", "setting": "[2]", "value": "18.23 ± 8.34", "unit": "µg/g"},
      {"measurement": "MRT", "setting": "[2]", "value": "13.8 ± 7.8", "unit": "min"},
      {"measurement": "Tmax", "setting": "[2]", "value": "7.2 ± 4.2", "unit": "min"},
      {"measurement": "AUC0–∞", "setting": "[3]", "value": "7.78 ± 0.46 ^b µg·h/mL"},
      {"measurement": "Kel", "setting": "[3]", "value": "2.37 ± 0.23 ^b h^−1"},
      {"measurement": "t1/2", "setting": "[3]", "value": "0.29 ± 0.03 ^b h"},
      {"measurement": "Cmax", "setting": "[4]", "value": "74.89 ± 10.94", "unit": "µg/mL"},
      {"measurement": "Tmax", "setting": "plasma, intravenous solution", "value": "≤ 10", "unit": "min"},
      {"measurement": "AUC0–t", "setting": "[4]", "value": "32550 ± 5520", "unit": "ng·h/mL"},
      {"measurement": "AUC0–∞", "setting": "[4]", "value": "33.78 ± 5.54", "unit": "µg·h/mL"},
      {"measurement": "Kel", "setting": "[4]", "value": "2.74 ± 1.67", "unit": "h⁻¹"},
      {"measurement": "t1/2", "setting": "[4]", "value": "0.34 ± 0.20", "unit": "h"}
    ]}
  ]
}
